These results are taken from US9777004B2, “Amino-substituted imidazopyridazines” (Bayer Intellectual Property GmbH, priority 2012, dated 2017).

In assay [1] the target is T1, human full-length MKNK1 (Homo sapiens (Human), UniProt Q9BUB5, T344D). The assay can be described thus: MKNK1 kinase assay (TR-FRET). Type of assay: biochemical. As to conditions: 10 μM ATP, 15 min preincubation. The method, then:
MKNK1-inhibitory activity of compounds of the present invention was quantified employing the MKNK1 TR-FRET assay as described in the following paragraphs.
As substrate for the kinase reaction the biotinylated peptide biotin-Ahx-[…] (C-terminus in amide form) was used which can be purchased e.g. form the company Biosyntan (Berlin-Buch, Germany).
(§1) For the assay 50 nL of a 100fold concentrated solution of the test compound in DMSO was pipetted into a black low volume 384well microtiter plate (Greiner Bio-One, Frickenhausen, Germany), 2 μL of a solution of MKNK1 in aqueous assay buffer [50 mM HEPES pH 7.5, 5 mM magnesium chloride, 1.0 mM dithiothreitol, 0.005% (v/v) Nonidet-P40 (Sigma)] was added and the mixture was incubated for 15 min at 22° C. to allow pre-binding of the test compounds to the enzyme before the start of the kinase reaction. Then the kinase reaction was started by the addition of 3 μL of a solution of adenosine-tri-phosphate (ATP, 16.7 μM=>final conc. in the 5 μL assay volume is 10 μM) and substrate (0.1 μM=>final conc. in the 5 μL assay volume is 0.06 μM) in assay buffer and the resulting mixture was incubated for a reaction time of 45 min at 22° C. The concentration of MKNK1 was adjusted depending of the activity of the enzyme lot and was chosen appropriate to have the assay in the linear range, typical concentrations were in the range of 0.05 μg/mL. The reaction was stopped by the addition of 5 μL of a solution of TR-FRET detection reagents (5 nM streptavidine-XL665 [Cisbio Bioassays, Codolet, France] and 1 nM anti-ribosomal protein S6 (pSer236)-antibody from Invitrogen [#44921G] and 1 nM LANCE EU-W1024 labeled ProteinG [Perkin-Elmer, product no. AD0071]) in an aqueous EDTA-solution (100 mM EDTA, 0.1% (w/v) bovine serum albumin in 50 mM HEPES pH 7.5).
(§2) The resulting mixture was incubated for 1 h at 22° C. to allow the formation of complex between the phosphorylated biotinylated peptide and the detection reagents. Subsequently the amount of phosphorylated substrate was evaluated by measurement of the resonance energy transfer from the Eu-chelate to the streptavidine-XL. Therefore, the fluorescence emissions at 620 nm and 665 nm after excitation at 350 nm were measured in a TR-FRET reader, e.g. a Rubystar (BMG Labtechnologies, Offenburg, Germany) or a Viewlux (Perkin-Elmer). The ratio of the emissions at 665 nm and at 622 nm was taken as the measure for the amount of phosphorylated substrate.

Assay [2] deals with T1, human full-length MKNK1. In words: MKNK1 kinase high ATP assay (TR-FRET). Type of assay: biochemical. Conditions: 2 mM ATP, 15 min preincubation. The method, then:
MKNK1 Kinase High ATP Assay
MKNK1-inhibitory activity at high ATP of compounds of the present invention after their preincubation with MKNK1 was quantified employing the TR-FRET-based MKNK1 high ATP assay as described in the following paragraphs.
As substrate for the kinase reaction the biotinylated peptide biotin-Ahx-[…] (C-terminus in amide form) was used, which can be purchased e.g. from the company Biosyntan (Berlin-Buch, Germany).
as §1, with “3.3 mM=>final” for “16.7 μM=>final”, “2 mM)” for “10 μM)”, “30” for “45”, “0.003” for “0.05”
as §2
Background: Time-resolved FRET reads energy transfer from a long-lived donor to a nearby acceptor.

For orientation: IC50 means the concentration that gives 50% inhibition.

Molecules are shown by their SMILES.

T1 sequence (Q9BUB5 other isoform, or with tags, fused parts or gaps T344D): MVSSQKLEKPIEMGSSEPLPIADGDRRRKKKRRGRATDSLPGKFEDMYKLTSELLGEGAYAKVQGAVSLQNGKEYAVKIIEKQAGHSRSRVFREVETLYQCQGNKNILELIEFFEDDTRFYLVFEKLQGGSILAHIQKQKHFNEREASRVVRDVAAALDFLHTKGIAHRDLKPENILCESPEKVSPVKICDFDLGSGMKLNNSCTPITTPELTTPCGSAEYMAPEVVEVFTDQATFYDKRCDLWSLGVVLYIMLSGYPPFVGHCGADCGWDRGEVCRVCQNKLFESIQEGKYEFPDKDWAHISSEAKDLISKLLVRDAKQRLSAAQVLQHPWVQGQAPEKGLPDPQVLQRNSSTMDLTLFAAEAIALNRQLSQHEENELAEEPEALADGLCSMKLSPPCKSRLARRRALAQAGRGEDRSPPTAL

Turning to `CNCC(Oc1ccc2ncc(-c3cc4ccccc4o3)n2n1)c1ccccc1` (single isomer, unassigned; (-)) [Example 29, (-)-2-{[3-(1-Benzofuran-2-yl)imidazo[1,2-b]pyridazin-6-yl]oxy}-N-methyl-2-phenylethanamine], the IC50 against human full-length MKNK1 [1] stood at 98 nM; on human full-length MKNK1 [2], 124 nM.

`COc1cccc2oc(-c3cnc4ccc(OC[C@H]5CNCCO5)nn34)cc12` [Example 2, 3-(4-Methoxy-1-benzofuran-2-yl)-6-[(2R)-morpholin-2-ylmethoxy]imidazo[1,2-b]pyridazine] yielded an IC50 at human full-length MKNK1 [2] of 11 nM.

Consider `CC(C)(C)CNCCCOc1ccc2ncc(-c3cc4ccccc4o3)n2n1` [Example 4, N-(3-{[3-(1-Benzofuran-2-yl)imidazo[1,2-b]pyridazin-6-yl]oxy}propyl)-2,2-dimethylpropan-1-amine], for which the half-inhibitory concentration (IC50) amounted to 4 nM against human full-length MKNK1 [1] and 13 nM at human full-length MKNK1 [2].

As to `c1ccc2oc(-c3cnc4ccc(OCCNCC5CC5)nn34)cc2c1` [Example 6, 2-{[3-(1-Benzofuran-2-yl)imidazo[1,2-b]pyridazin-6-yl]oxy}-N-(cyclopropylmethyl)ethanamine], the IC50 on human full-length MKNK1 [1] is 7 nM; on human full-length MKNK1 [2], 18 nM.

For `CC(C)NCCCOc1ccc2ncc(-c3cc4ccccc4o3)n2n1` [Example 9, 3-{[3-(1-Benzofuran-2-yl)imidazo[1,2-b]pyridazin-6-yl]oxy}-N-(propan-2-yl)propan-1-amine], the IC50 against human full-length MKNK1 [1] is 7 nM; at human full-length MKNK1 [2], 20 nM.

On to `CC(C)(C)CNCCOc1ccc2ncc(-c3cc4ccccc4o3)n2n1` [Example 12, N-(2-{[3-(1-Benzofuran-2-yl)imidazo[1,2-b]pyridazin-6-yl]oxy}ethyl)-2,2-dimethylpropan-1-amine], for which the IC50 turned out to be 11 nM against human full-length MKNK1 [1] and 25 nM against human full-length MKNK1 [2].

Turning to `c1ccc2oc(-c3cnc4ccc(OCC5CNC5)nn34)cc2c1` [Example 14, 6-(Azetidin-3-ylmethoxy)-3-(1-benzofuran-2-yl)imidazo[1,2-b]pyridazine], the IC50 against human full-length MKNK1 [2] was found to be 27 nM.

Turning to `c1ccc2oc(-c3cnc4ccc(OCC[C@@H]5CCCN5)nn34)cc2c1` [Example 15, 3-(1-Benzofuran-2-yl)-6-{2-[(2S)-pyrrolidin-2-yl]ethoxy}imidazo[1,2-b]pyridazine], the half-inhibitory concentration (IC50) amounted to 12 nM at human full-length MKNK1 [1] and 30 nM against human full-length MKNK1 [2].

With `c1ccc2oc(-c3cnc4ccc(OCCNC5CC5)nn34)cc2c1` [Example 17, N-(2-{[3-(1-Benzofuran-2-yl)imidazo[1,2-b]pyridazin-6-yl]oxy}ethyl)cyclopropanamine], the IC50 is 8 nM at human full-length MKNK1 [1] and 36 nM at human full-length MKNK1 [2].

On to `CC(C)(C)NCCOc1ccc2ncc(-c3cc4ccccc4o3)n2n1` [Example 18, N-(2-{[3-(1-Benzofuran-2-yl)imidazo[1,2-b]pyridazin-6-yl]oxy}ethyl)-2-methylpropan-2-amine], for which the IC50 was found to be 24 nM at human full-length MKNK1 [1] and 37 nM against human full-length MKNK1 [2].

On to `Clc1ccc2oc(-c3cnc4ccc(OC[C@H]5CNCCO5)nn34)cc2c1` [Example 20, 3-(5-Chloro-1-benzofuran-2-yl)-6-[(2R)-morpholin-2-ylmethoxy]imidazo[1,2-b]pyridazine], for which, on human full-length MKNK1 [2], the midpoint of inhibition, the IC50, lay at 41 nM.

In turn, `CNC(C)COc1ccc2ncc(-c3cc4ccccc4o3)n2n1` (stereo not shown) [Example 24, 1-{[3-(1-Benzofuran-2-yl)imidazo[1,2-b]pyridazin-6-yl]oxy}-N-methylpropan-2-amine] gave an IC50 against human full-length MKNK1 [2] of 55 nM.

Regarding `Clc1ccc2oc(-c3cnc4ccc(OCC[C@@H]5CCCN5)nn34)cc2c1` [Example 25, 3-(5-Chloro-1-benzofuran-2-yl)-6-{2-[(2S)-pyrrolidin-2-yl]ethoxy}imidazo[1,2-b]pyridazine], the 50% inhibitory concentration (IC50) against human full-length MKNK1 [1] turned out to be 39 nM; against human full-length MKNK1 [2], 91 nM.

`CNCC(C)Oc1ccc2ncc(-c3cc4ccccc4o3)n2n1` (stereo not shown) [Example 26, 2-{[3-(1-Benzofuran-2-yl)imidazo[1,2-b]pyridazin-6-yl]oxy}-N-methylpropan-1-amine]: the IC50 at human full-length MKNK1 [2] was 93 nM.

As for `CC(C)NCC(Oc1ccc2ncc(-c3cc4ccccc4o3)n2n1)c1ccccc1` (stereo not shown) [Example 27, Formic acid-N-(2-{[3-(1-benzofuran-2-yl)imidazo[1,2-b]pyridazin-6-yl]oxy}-2-phenylethyl)propan-2-amine (1:1)], the values for the IC50 on human full-length MKNK1 [1] and on human full-length MKNK1 [2] were 36 nM and 75 nM, respectively.

As to `CC(C)(C)CNCC(Oc1ccc2ncc(-c3cc4ccccc4o3)n2n1)c1ccccc1` (stereo not shown) [Example 30, N-(2-{[3-(1-Benzofuran-2-yl)imidazo[1,2-b]pyridazin-6-yl]oxy}-2-phenylethyl)-2,2-dimethylpropan-1-amine], the IC50 against human full-length MKNK1 [1] worked out at 227 nM; at human full-length MKNK1 [2], 239 nM.

For the compound `c1ccc2oc(-c3cnc4ccc(O[C@@H]5CCNC5)nn34)cc2c1` [Example 31, 3-(1-Benzofuran-2-yl)-6-[(3R)-pyrrolidin-3-yloxy]imidazo[1,2-b]pyridazine], the IC50 on human full-length MKNK1 [1] is 22 nM; at human full-length MKNK1 [2] it was 49 nM.

With `Fc1cccc2oc(-c3cnc4ccc(OC[C@H]5CNCCO5)nn34)cc12` [Example 33, 3-(4-Fluoro-1-benzofuran-2-yl)-6-[(2R)-morpholin-2-ylmethoxy]imidazo[1,2-b]-pyridazine], the figures for the IC50 on human full-length MKNK1 [1] and against human full-length MKNK1 [2] were 10 nM and 15 nM, respectively.
